{"source": "paper PMC10938783", "about": "“A novel pan-PI3K inhibitor KTC1101 synergizes with anti-PD-1 therapy by targeting tumor suppression and immune activation” (Molecular Cancer, 2024)", "assay_in_all_cases": "JFCR39 sulforhodamine B growth assay", "format_in_all_cases": "cell-based", "key": {"A549": {"system": "A549", "settings": "Homo sapiens, A549, 48 h", "method": "(§1) JFCR39 drug discovery system was used to measure the growth inhibitory activities and identify the target of KTC1101. The JFCR39 panel consists of 39 cell lines seeded in 96-well plates. After 48-h treatment with KTC1101, cell growth was measured using the sulforhodamine B assay. […] The deviation of log GI50 for each cell line from the average log GI50 across the JFCR39 panel was plotted as a fingerprint. MG-MID (mean of Log GI50 values) represents the average log GI50 for all 39 cell lines. The most sensitive and least sensitive cell lines were identified by calculating the difference in their log GI50 values (Range) and the difference between the most sensitive cell line and the average GI50 on the JFCR39 panel (Delta). The fingerprint of KTC1101 was compared with the fingerprints of reference compounds in the database. The Pearson correlation coefficient (r) was calculated (n = 39)."}, "ACHN": {"system": "ACHN", "settings": "Homo sapiens, 48 h", "method": "as §1"}, "BSY-1": {"system": "BSY-1", "settings": "Homo sapiens, BSY-1, 48 h", "method": "as §1"}, "DMS114": {"system": "DMS114", "settings": "Homo sapiens, DMS-114; DMS114, 48 h", "method": "as §1"}, "DMS273": {"system": "DMS273", "settings": "Homo sapiens, DMS-273; DMS273, 48 h", "method": "as §1"}, "DU-145": {"system": "DU-145", "settings": "Homo sapiens, DU-145, 48 h", "method": "as §1"}, "HBC-4": {"system": "HBC-4", "settings": "Homo sapiens, HBC4; HBC-4, 48 h", "method": "as §1"}, "HBC-5": {"system": "HBC-5", "settings": "Homo sapiens, HBC5; HBC-5, 48 h", "method": "as §1"}, "HCC2998": {"system": "HCC2998", "settings": "Homo sapiens, HCC 2998; HCC2998, 48 h", "method": "as §1"}, "HCT-116": {"system": "HCT-116", "settings": "Homo sapiens, HCT-116, 48 h", "method": "as §1"}, "HCT-15": {"system": "HCT-15", "settings": "Homo sapiens, HCT-15, 48 h", "method": "as §1"}, "HT-29": {"system": "HT-29", "settings": "Homo sapiens, HT-29, 48 h", "method": "as §1"}, "KM-12": {"system": "KM-12", "settings": "Homo sapiens, KM12; KM-12, 48 h", "method": "as §1"}, "LOX-IMVI": {"system": "LOX-IMVI", "settings": "Homo sapiens, 48 h", "method": "as §1"}, "MCF-7": {"system": "MCF-7", "settings": "Homo sapiens, MCF7; MCF-7, 48 h", "method": "as §1"}, "MDA-MB-231": {"system": "MDA-MB-231", "settings": "Homo sapiens, MDA-MB-231, 48 h", "method": "as §1"}, "MKN-A": {"system": "MKN-A", "settings": "Homo sapiens, 48 h", "method": "as §1"}, "MKN-B": {"system": "MKN-B", "settings": "Homo sapiens, 48 h", "method": "as §1"}, "MKN1": {"system": "MKN1", "settings": "Homo sapiens, MKN-1; MKN1, 48 h", "method": "as §1"}, "MKN45": {"system": "MKN45", "settings": "Homo sapiens, MKN-45; MKN45, 48 h", "method": "as §1"}, "MKN74": {"system": "MKN74", "settings": "Homo sapiens, MKN-74; MKN74, 48 h", "method": "as §1"}, "NCI-H226": {"system": "NCI-H226", "settings": "Homo sapiens, NCI-H226, 48 h", "method": "as §1"}, "NCI-H23": {"system": "NCI-H23", "settings": "Homo sapiens, NCI-H23, 48 h", "method": "as §1"}, "NCI-H460": {"system": "NCI-H460", "settings": "Homo sapiens, NCI-H460, 48 h", "method": "as §1"}, "NCI-H522": {"system": "NCI-H522", "settings": "Homo sapiens, NCI-H522, 48 h", "method": "as §1"}, "OVCAR-3": {"system": "OVCAR-3", "settings": "Homo sapiens, OVCAR-3, 48 h", "method": "as §1"}, "OVCAR-4": {"system": "OVCAR-4", "settings": "Homo sapiens, OVCAR-4, 48 h", "method": "as §1"}, "OVCAR-5": {"system": "OVCAR-5", "settings": "Homo sapiens, OVCAR-5, 48 h", "method": "as §1"}, "OVCAR-8": {"system": "OVCAR-8", "settings": "Homo sapiens, OVCAR-8, 48 h", "method": "as §1"}, "PC-3": {"system": "PC-3", "settings": "Homo sapiens, PC-3, 48 h", "method": "as §1"}, "RXF-631L": {"system": "RXF-631L", "settings": "Homo sapiens, 48 h", "method": "as §1"}, "SF-268": {"system": "SF-268", "settings": "Homo sapiens, SF-268, 48 h", "method": "as §1"}, "SF-295": {"system": "SF-295", "settings": "Homo sapiens, SF-295, 48 h", "method": "as §1"}, "SF-539": {"system": "SF-539", "settings": "Homo sapiens, SF-539, 48 h", "method": "as §1"}, "SK-OV-3": {"system": "SK-OV-3", "settings": "Homo sapiens, SK-OV-3, 48 h", "method": "as §1"}, "SNB-75": {"system": "SNB-75", "settings": "Homo sapiens, SNB-75, 48 h", "method": "as §1"}, "SNB-78": {"system": "SNB-78", "settings": "Homo sapiens, SNB-78, 48 h", "method": "as §1"}, "St-4": {"system": "St-4", "settings": "Homo sapiens, St-4, 48 h", "method": "as §1"}, "U251": {"system": "U251", "settings": "Homo sapiens, U-251; U251, 48 h", "method": "as §1"}}}
{"smiles": "COc1cc(N)cc2c1nc(C(F)F)n2-c1nc(N2CCCOCC2)nc(N2CCOCC2)n1", "note": "[KTC1101, 2-(difluoromethyl)-4-methoxy-1-(4-morpholino-6-(1,4-oxazepan-4-yl)-1,3,5-triazin-2-yl)-1H-benzo[d]imidazol-6-amine]", "values": [{"measurement": "GI50", "setting": "A549", "value": 21.9, "unit": "nM"}, {"measurement": "GI50", "setting": "ACHN", "value": 21.4, "unit": "nM"}, {"measurement": "GI50", "setting": "BSY-1", "value": 10, "unit": "nM"}, {"measurement": "GI50", "setting": "DMS114", "value": 10, "unit": "nM"}, {"measurement": "GI50", "setting": "DMS273", "value": 11, "unit": "nM"}, {"measurement": "GI50", "setting": "DU-145", "value": 23.4, "unit": "nM"}, {"measurement": "GI50", "setting": "HBC-4", "value": 24.5, "unit": "nM"}, {"measurement": "GI50", "setting": "HBC-5", "value": 14.5, "unit": "nM"}, {"measurement": "GI50", "setting": "HCC2998", "value": 36.3, "unit": "nM"}, {"measurement": "GI50", "setting": "HCT-116", "value": 31.6, "unit": "nM"}, {"measurement": "GI50", "setting": "HCT-15", "value": 17.8, "unit": "nM"}, {"measurement": "GI50", "setting": "HT-29", "value": 61.7, "unit": "nM"}, {"measurement": "GI50", "setting": "KM-12", "value": 178, "unit": "nM"}, {"measurement": "GI50", "setting": "LOX-IMVI", "value": 17.4, "unit": "nM"}, {"measurement": "GI50", "setting": "MCF-7", "value": 10, "unit": "nM"}, {"measurement": "GI50", "setting": "MDA-MB-231", "value": 30.2, "unit": "nM"}, {"measurement": "GI50", "setting": "MKN-A", "value": 145, "unit": "nM"}, {"measurement": "GI50", "setting": "MKN-B", "value": 28.8, "unit": "nM"}, {"measurement": "GI50", "setting": "MKN1", "value": 10, "unit": "nM"}, {"measurement": "GI50", "setting": "MKN45", "value": 162, "unit": "nM"}, {"measurement": "GI50", "setting": "MKN74", "value": 70.8, "unit": "nM"}, {"measurement": "GI50", "setting": "NCI-H226", "value": 16.6, "unit": "nM"}, {"measurement": "GI50", "setting": "NCI-H23", "value": 25.7, "unit": "nM"}, {"measurement": "GI50", "setting": "NCI-H460", "value": 10, "unit": "nM"}, {"measurement": "GI50", "setting": "NCI-H522", "value": 10, "unit": "nM"}, {"measurement": "GI50", "setting": "OVCAR-3", "value": 15.8, "unit": "nM"}, {"measurement": "GI50", "setting": "OVCAR-4", "value": 61.7, "unit": "nM"}, {"measurement": "GI50", "setting": "OVCAR-5", "value": 23.4, "unit": "nM"}, {"measurement": "GI50", "setting": "OVCAR-8", "value": 30.9, "unit": "nM"}, {"measurement": "GI50", "setting": "PC-3", "value": 15.8, "unit": "nM"}, {"measurement": "GI50", "setting": "RXF-631L", "value": 15.5, "unit": "nM"}, {"measurement": "GI50", "setting": "SF-268", "value": 18.2, "unit": "nM"}, {"measurement": "GI50", "setting": "SF-295", "value": 14.8, "unit": "nM"}, {"measurement": "GI50", "setting": "SF-539", "value": 10, "unit": "nM"}, {"measurement": "GI50", "setting": "SK-OV-3", "value": 12.9, "unit": "nM"}, {"measurement": "GI50", "setting": "SNB-75", "value": 10, "unit": "nM"}, {"measurement": "GI50", "setting": "SNB-78", "value": 22.9, "unit": "nM"}, {"measurement": "GI50", "setting": "St-4", "value": 105, "unit": "nM"}, {"measurement": "GI50", "setting": "U251", "value": 38, "unit": "nM"}]}
